In paper PMC3722775, “1-Aryl-3-[4-(thieno[3,2-d]pyrimidin-4-yloxy)phenyl]ureas as VEGFR-2 Tyrosine Kinase Inhibitors: Synthesis, Biological Evaluation, and Molecular Modelling Studies” (BioMed Research International, 2013):

Tests used:
[1] = tested on: phosphorylated (activated) VEGFR-2; experiment: Western blotting of phosphorylated (active) and total VEGFR-2 in HUVECs; format: cell-based, human; conditions: 1 μM, normalized with total VEGFR-2
Experimental: (§1) Human umbilical vein endothelial cells (HUVECs) were obtained from the ScienceCell Research Labs (San Diego, CA, USA), HUVECs were seeded on plates coated with 0.2% gelatin (Sigma-Aldrich, Sintra, Portugal) and cultured in M199 medium (Sigma-Aldrich, Sintra, Portugal) supplemented with 20% fetal bovine serum (FBS) (Invitrogen Life Technologies, Scotland, UK), 1% penicillin/streptomycin (Invitrogen Life Technologies), 0.01% heparin (Sigma-Aldrich), and […] endothelial cell growth supplement (Biomedical Technologies Inc., MA, USA) and maintained at 37°C in a humidified 5% carbon dioxide atmosphere. Cells were kept between passages 3 and 8 for every experiment. The test compounds were dissolved in DMSO and added to cell cultures at a concentration of 0.1–10 μM. Incubations were performed for 24 h in medium supplemented with 2% FBS, 1% penicillin/streptomycin, and 60 ng/mL of the vascular endothelial growth factor (Sigma-Aldrich, Sintra, Portugal). Control cells were incubated with vehicle (DMSO at 0.1% in every culture).
Proteins were isolated from HUVEC lysates using RIPA (Chemicon International, CA, USA). Proteins were quantified using a spectrophotometer (Jenway, 6405 UV/vis, Essex, UK), and 20 μg of protein were subjected to 8% SDS-PAGE with a 5% stacking gel. After electrophoresis, proteins were blotted into a Hybond nitrocellulose membrane (Amersham, Arlington, VA, USA). Immunodetection for total VEGFR-2 (1 : 1000; Cell Signaling, MA, USA), phosphorylated (activated) VEGFR-2 (1 : 750; Santa Cruz Biotechnology, CA, USA), and β-actin (1 : 3000; Abcam, Cambridge, UK) was accomplished with enhanced chemiluminescence (ECL kit, Amersham, Arlington, USA). […] The relative intensity of each protein blotting analysis was measured using a computerized software program (Bio-Rad, CA, USA), and the expression of activated and total VEGFR-2 were normalized with total VEGFR-2 and β-actin bands, respectively, to compare the expression of proteins in different treatment groups.

HUVECs [2] = experiment: TUNEL cell apoptosis assay in HUVECs; format: cell-based, human; conditions: 24 h; for Effect on apoptosis (TUNEL): 0.1, 0.5 and 1 μM, statistical significance only for 2a at the highest concentration
Experimental: as §1
HUVECs (6 × 10^4 cells/mL) were grown for 24 h on glass coverslips and incubated with different concentrations (0.1–1 μM) of the tested compounds. TUNEL assay was performed using the In Situ Cell Death Detection kit (Roche Diagnostics, Mannheim, Germany), according to the manufacturer's instruction and as previously reported. Immunofluorescence was visualized under a fluorescence microscope (Olympus, BH-2, UK). The percentage of stained cells was evaluated by counting the cells stained with TUNEL (apoptotic cells) divided by the total number of nuclei counterstained with DAPI (Invitrogen, CA, USA) at a 200x magnification field. One thousand nuclei were evaluated. Results were expressed as percentage of control (100%).

VEGFR-2 = target: T1, VEGFR-2 (Homo sapiens, UniProt P35968); experiment: VEGFR-2 enzymatic inhibition assay (Z'-LYTE-Tyr1 Peptide FRET kit); format: biochemical; conditions: enzymatic FRET-based assay, 10 μM ATP; four separate determinations
T1 construct: purchased Invitrogen
Experimental: The compounds were assessed for VEGFR-2 inhibition activity using the Z′-LYTE-Tyr1 Peptide assay kit (according to the procedures recommended by the manufacturer Invitrogen, Cat. PV3190) [14]. Briefly, assays were performed in a total of 20 μL in 384-well plates using fluorescence resonance energy transfer technology. A Tyr1 substrate (coumarin-fluorescein double-labeled peptide) at 1.0 μM was incubated for 1 h with 4 μg/mL VEGFR-2, 10 μM ATP, and inhibitors at room temperature in 50 mM Hepes/Na (pH 7.5), 10 mM MgCl2, 2.0 mM MnCl2, 2.5 mM DTT, 0.10 mM orthovanadate, and 0.01% bovine serum albumin. […] After a second incubation of 1 hour, a stop reagent was added to each well.

HUVECs [3] = experiment: MTS toxicity (cell viability) assay in HUVECs; format: cell-based, human; conditions: 24 h, control 2.33 ± 0.06 O.D., mean ± SEM
Experimental: as §1
HUVECs (2 × 10^5 cells/mL) were allowed to grow for 24 h and then incubated with the test compounds at a range concentration between 0.1 and 10 μM or control (0.1% DMSO) for 24 h. After the incubation period, cells were washed and their viability was assessed using Cell Titer 96 Aqueous ONE Solution Reagent MTS [3-(4,5-dimethylthiazol-2-yl)-5-(3-carboxymethoxyphenyl)-2-(4-sulfophenyl)-2H-tetrazolium] colorimetric assay (Promega, Madison, USA), according to the instructions provided by the manufacturer and as previously described. Optical density was measured at 492 nm. Three independent experiments were performed, and the results were expressed as mean ± SEM.

T1 sequence (P35968 834-1162 limits assumed): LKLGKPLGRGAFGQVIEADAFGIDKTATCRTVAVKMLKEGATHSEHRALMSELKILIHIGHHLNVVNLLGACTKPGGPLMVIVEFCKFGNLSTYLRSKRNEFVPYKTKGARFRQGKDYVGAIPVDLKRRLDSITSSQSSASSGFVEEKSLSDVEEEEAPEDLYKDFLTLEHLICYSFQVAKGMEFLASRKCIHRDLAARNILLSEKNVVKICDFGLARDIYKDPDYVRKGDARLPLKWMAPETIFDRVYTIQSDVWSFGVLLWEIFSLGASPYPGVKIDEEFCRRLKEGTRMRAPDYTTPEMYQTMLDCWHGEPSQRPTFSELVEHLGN

Compound	Formation of the active (phosphorylated) form of VEGFR-2 [1]	Effect on apoptosis (TUNEL) (HUVECs [2])	Increase in apoptosis (TUNEL) comparing with untreated cells (HUVECs [2]; highest concentration tested (1 μM)) [%]	IC50 (VEGFR-2) [nM]	Viability of HUVEC (MTS optical density) (HUVECs [3]; 5.0 μM) [O.D.]	Viability of HUVEC (MTS optical density) (HUVECs [3]; 10 μM) [O.D.]	melting point [°C]
O=C(Nc1ccccc1)Nc1ccc(Oc2ncnc3ccsc23)cc1 [Compound 2a, 1-Phenyl-3-[4-(thieno[3,2-d]pyrimidin-4-yloxy)phenyl]urea]	significantly decrease	increase in apoptosis	32.8 ± 1.23	199	2.00 ± 0.06	1.99 ± 0.03	
COc1ccc(NC(=O)Nc2ccc(Oc3ncnc4ccsc34)cc2)cc1 [Compound 2b, 1-(4-Methoxyphenyl)-3-[4-(thieno[3,2-d]pyrimidin-4-yloxy)phenyl]urea]	significantly decrease	increase in apoptosis		188	1.84 ± 0.05	1.82 ± 0.04	
N#Cc1ccc(NC(=O)Nc2ccc(Oc3ncnc4ccsc34)cc2)cc1 [Compound 2c, 1-(4-Cyanophenyl)-3-[4-(thieno[3,2-d]pyrimidin-4-yloxy)phenyl]urea]	did not significantly inhibit	increase in apoptosis		150		1.96 ± 0.02	
Cc1csc2c(Oc3ccc(NC(=O)Nc4ccccc4)cc3)ncnc12 [Compound 2d, 1-Phenyl-3-[4-(7-Methylthieno[3,2-d]pyrimidin-4-yloxy)phenyl]urea]				> 100000			285.7 to 287.3
COc1ccc(NC(=O)Nc2ccc(Oc3ncnc4c(C)csc34)cc2)cc1 [Compound 2e, 1-(4-Methoxyphenyl)-3-[4-(7-methylthieno[3,2-d]pyrimidin-4-yloxy)phenyl]urea]				> 100000			248.4 to 249.6
Cc1csc2c(Oc3ccc(NC(=O)Nc4ccc(C#N)cc4)cc3)ncnc12 [Compound 2f, 1-(4-Cyanophenyl)-3-[4-(7-methylthieno[3,2-d]pyrimidin-4-yloxy)phenyl]urea]				> 100000			
